Activity calls are given as the source filed them. The calls are words filed in the database; no cut-off is given here.
What was measured:
NIH3T3 = assay: Cytotoxicity against mouse 3T3 cells assessed as cell viability at 5 to 20 uM after 72 hrs by MTT assay; format: cell-based; conditions: nih3t3, 72 h
SK-BR-3 [1] = assay: Cytotoxicity against ER-negative human SKBR3 cells assessed as growth inhibition at 20 uM after 72 hrs by MTT assay; format: functional, cell-based
MCF7 [2] = assay: Cytotoxicity against ER-positive human MCF7 cells assessed as growth inhibition at 10 to 20 uM after 72 hrs by MTT assay; format: functional, cell-based
[3] = Stability of the compound in simulated gastric/intestinal fluid assessed as compound remaining at 10 mM after 6 hrs by UV/Vis spectroscopic analysis in presence of porcine pepsin and pancreatin relative to control; format: physicochemical; conditions: pig; read-out: Stability
MCF7 [4] = assay: Cytotoxicity against ER-positive human MCF7 cells assessed as growth inhibition after 72 hrs by MTT assay; format: functional, cell-based; conditions: for IC50: MCF7, 72 h
SK-BR-3 [5] = assay: Cytotoxicity against ER-negative human SKBR3 cells assessed as growth inhibition at 10 to 20 uM after 72 hrs by MTT assay; format: functional, cell-based
SK-BR-3 [6] = assay: Cytotoxicity against ER-negative human SKBR3 cells assessed as growth inhibition after 72 hrs by MTT assay; format: functional, cell-based; conditions: for IC50: SK-BR-3, 72 h
MCF7 [7] = assay: Cytotoxicity against ER-positive human MCF7 cells assessed as growth inhibition at 1 uM after 72 hrs by MTT assay; format: functional, cell-based
MCF7 [8] = assay: Cytotoxicity against ER-positive human MCF7 cells assessed as growth inhibition at 20 uM after 72 hrs by MTT assay; format: functional, cell-based

remaining at 6 h, 10000 µM [3] | SMILES | Activity (NIH3T3) | growth inhibition (GI) (SK-BR-3 [1]) | growth inhibition (GI) (MCF7 [2]) | growth inhibition (GI) (MCF7 [4]) | growth inhibition (GI) (SK-BR-3 [5]) | IC50 (SK-BR-3 [6]) | IC50 (MCF7 [4]) | growth inhibition (GI) (MCF7 [7]) | growth inhibition (GI) (SK-BR-3 [6]) | growth inhibition (GI) (MCF7 [8])
79% | Cc1ccc(C2C(Cl)C(=O)N2c2ccc(C)cc2)cc1 (stereo unspecified) | Non-toxic | Active | inactive |  |  |  |  |  |  | 
80% | O=C1C(Cl)C(c2ccccc2)N1c1ccc(Cl)cc1 (stereo unspecified) | Non-toxic |  |  | Dose-dependent effect | Active |  |  |  |  | 
31% | Oc1ccc(/C=C\c2cc(O)cc(O)c2)cc1 [CIS-RESVERATROL] |  |  |  |  |  | 41.2 µM | 28.4 µM |  |  | 
78% | O=C1C(Cl)C(c2ccccc2)N1c1ccccc1 (stereo unspecified) | Non-toxic |  |  |  | Active |  |  | inactive |  | 
87% | O=C1C(Cl)C(c2ccc(Br)cc2)N1c1ccc(Br)cc1 (stereo unspecified) | Non-toxic |  |  | Dose-dependent effect |  | 11.1 µM | 16.7 µM |  | Dose-dependent effect | 
70% | O=C1C(Cl)C(c2ccc(Cl)cc2)N1c1ccc(I)cc1 (stereo unspecified) | Non-toxic |  |  | Dose-dependent effect |  | 9.51 µM | 11.8 µM |  | Dose-dependent effect | 
83% | O=C1C(Cl)C(c2ccc(Cl)cc2)N1c1ccccc1 (stereo unspecified) | Non-toxic |  |  |  | Active |  |  |  |  | Active
